Test results published in US6750228B1, “Aromatic sulfone hydroxamic acid metalloprotease inhibitor” (priority 1997, dated 2004).
Where two headings read alike, the source gives them in different places.

Experiments:
MMP-13 = target: T1, MMP-13 (Homo sapiens, UniProt P45452); test: biochemical; details: read-out: MMP-13 IC50
T1 construct: made in house; host or cells: baculovirus / insect cells
Procedure: (§1) The compounds prepared in the manner described in the Examples above were assayed for activity by an in vitro assay. […] Briefly, 4-aminophenylmercuric acetate (APMA) or trypsin-activated MMPs were incubated with various concentrations of the inhibitor compound at room temperature for 5 minutes.
(§2) The expressed enzyme was purified first over a heparin agarose column and then over a chelating zinc chloride column. The proenzyme was activated by APMA for use in the assay.
(§3) MMP-1 expressed in transfected HT-1080 cells was provided by Dr. Harold Welgus of Washington University, St. Louis, Mo. The enzyme was also activated using APMA and was then purified over a hydroxamic acid column. Dr. Welgus also provided transfected HT-1080 cells that expressed MMP-9. Transfected cells that expressed MMP-2 were provided by Dr. Gregory Goldberg, also of Washington University. Studies with MMP-7 were carried out at pH 7.5 in the presence of 0.02% 2-mercaptoethanol using conditions otherwise similar to those used for the other enzymes. The enzyme was obtaind from a hMMP-7-expressing E. coli clone that was a gift of Dr. Steven Shapiro of Washington University, St. Louis, Mo. Further specifics for preparation and use of these enzymes can be found in the scientific literature describing these enzymes. See, for example, Enzyme Nomenclature, Academic Press, San Diego, Calif. […] The enzyme substrate is a methoxycoumarin-containing polypeptide having the following sequence:
(§4) MCA-ProLeuGlyLeuDpaAlaArgNH2, wherein MCA is methoxycoumarin and Dpa is 3-(2,4-dinitrophenyl)-L-2,3-diaminopropionyl alanine.
(§5) The buffer used for assays contained 100 mM Tris-HCl, 100 mM NaCl, 10 mM CaCl2 and 0.05 percent polyethyleneglycol (23) lauryl ether at a pH value of 7.5. Assays were carried out at room temperature, and dimethyl sulfoxide (DMSO) at a final concentration of 1 percent was used to dissolve inhibitor compound.
(§6) The assayed inhibitor compound in DMSO/buffer solution was compared to an equal amount of DMSO/buffer with no inhibitor as control using Microfluor White Plates (Dynatech). The inhibitor or control solution was maintained in the plate for 10 minutes and the substrate was added to provide a final concentration of 4 μM.
(§7) Inhibition was measured as a reduction in fluorescent intensity as a function of inhibitor concentration, using a Perkin Elmer L550 plate reader. The IC50 values were calculated from those values. The results are set forth in the Inhibition Table A, below, reported in terms of IC50 to three significant figures, where appropriate.

MMP-2 = target: T2, MMP-2 (Homo sapiens, UniProt P08253); test: biochemical
T2 construct: made in house; provided by Dr. Gregory Goldberg, Washington University
T2 sequence (P08253 110-660): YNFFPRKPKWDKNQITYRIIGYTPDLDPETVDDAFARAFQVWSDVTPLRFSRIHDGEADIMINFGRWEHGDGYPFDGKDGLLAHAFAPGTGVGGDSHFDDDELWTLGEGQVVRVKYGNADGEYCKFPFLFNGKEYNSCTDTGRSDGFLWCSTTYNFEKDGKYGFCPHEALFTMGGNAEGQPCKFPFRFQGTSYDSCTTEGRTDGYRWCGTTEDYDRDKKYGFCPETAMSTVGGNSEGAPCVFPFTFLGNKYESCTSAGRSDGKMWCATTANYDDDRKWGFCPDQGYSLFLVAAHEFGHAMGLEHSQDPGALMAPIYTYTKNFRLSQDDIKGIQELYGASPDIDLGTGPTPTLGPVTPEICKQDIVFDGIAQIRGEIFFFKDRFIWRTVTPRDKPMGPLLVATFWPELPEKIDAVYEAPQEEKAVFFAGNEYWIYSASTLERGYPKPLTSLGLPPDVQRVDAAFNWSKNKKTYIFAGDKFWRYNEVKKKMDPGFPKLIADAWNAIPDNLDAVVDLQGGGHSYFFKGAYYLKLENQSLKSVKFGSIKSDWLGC
Procedure: as §1, §2, §3, §4, §5, §6, §7

[1] = recombinant human MMP-13, MCA peptide substrate 4 μM, pH 7.5, room temperature
[2] = recombinant human MMP-2, MCA peptide substrate 4 μM, pH 7.5, room temperature, read-out: MMP-2 IC50

SMILES	IC50 (MMP-13; [1]) [nM]	IC50 (MMP-2; [2]) [nM]	IC50 (MMP-2; MMP-2 IC50 (nM)) [nM]	IC50 (MMP-13) [nM]	IC50 (MMP-2; read-out: MMP-2 IC50) [nM]
C=CCN(CC=C)C(=O)C1CCN(c2ccc(S(=O)(=O)C3(C(=O)NO)CCOCC3)cc2)CC1 [Example 48]	27	3200	–	–	–
O=C(NO)C1(S(=O)(=O)c2ccc(N3CCC(Sc4nc5ccccc5o4)CC3)cc2)CCN(C2CC2)CC1 [Example 382]	11.4	260	–	–	–
CN(C)c1ccc(S(=O)(=O)C2CCN(c3ccc(S(=O)(=O)C4(C(=O)NO)CCOCC4)cc3)CC2)cc1 [Example 836]	135	4200	–	–	–
C[C@H](OC1CCN(c2ccc(S(=O)(=O)C3(C(=O)NO)CCN(C4CC4)CC3)cc2)CC1)c1ccccc1 [Example 400]	23.5	520	–	–	–
O=C(NO)C1(S(=O)(=O)c2ccc(N3CCN(c4ccccc4)CC3)cc2)CCN(C2CC2)CC1 [Example 369]	3.3	5.4	–	–	–
CN(C)S(=O)(=O)N1CC(Oc2ccc(S(=O)(=O)C3(C(=O)NO)CCOCC3)cc2)C1 [Example 853]	15.8	120	–	–	–
CCOc1ccc(C(=O)C2CCN(c3ccc(S(=O)(=O)C4(C(=O)NO)CCN(C5CC5)CC4)cc3)CC2)cc1 [Example 376]	5.5	230	–	–	–
CNC(=S)N1CCC(C(=O)NO)(S(=O)(=O)c2ccc(Oc3ccc(OC(F)(F)F)cc3)cc2)CC1 [Example 198, N-hydroxy-4[[4-(4-trifluoromethoxyphenoxy)-]sulfonyl]-1-(N-methylthiourea)-4-piperidinecarboxamide]	0.375	0.25	–	–	–
C=C(C)c1ccc(N2CCN(c3ccc(S(=O)(=O)C4(C(=O)NO)CCN(C5CC5)CC4)cc3)CC2)cc1 [Example 360]	10	5.6	–	–	–
COc1ccc(CC(=O)C2CCN(c3ccc(S(=O)(=O)C4(C(=O)NO)CCOCC4)cc3)CC2)cc1 [Example 862]	1.7	40	–	–	–
O=C(Cc1ccc(Cl)cc1)C1CCN(c2ccc(S(=O)(=O)C3(C(=O)NO)CCOCC3)cc2)CC1 [Example 861]	2	34.9	–	–	–
COc1cccc(S(=O)(=O)N2CC(Oc3ccc(S(=O)(=O)C4(C(=O)NO)CCOCC4)cc3)C2)c1 [Example 829]	6	22	–	–	–
Cc1ccc(C(=O)C2CCN(c3ccc(S(=O)(=O)C4(C(=O)NO)CCN(C5CC5)CC4)cc3)CC2)cc1 [Example 373]	3	80	–	–	–
CN(C)c1cccc2c(S(=O)(=O)N3CC(Oc4ccc(S(=O)(=O)C5(C(=O)NO)CCOCC5)cc4)C3)cccc12 [Example 852]	25	3000	–	–	–
COc1cc(C(=O)C2CCN(c3ccc(S(=O)(=O)C4(C(=O)NO)CCOCC4)cc3)CC2)ccc1Cl [Example 859]	5.5	440	–	–	–
O=CN1CCC(C(=O)NO)(S(=O)(=O)c2ccc(Oc3ccc(OC(F)(F)F)cc3)cc2)CC1 [Example 452]	< 0.1	< 0.1	–	–	–
O=C(NO)C1(S(=O)(=O)c2ccc(N3CCC(c4nc(-c5cccc(C(F)(F)F)c5)no4)CC3)cc2)CCN(C2CC2)CC1 [Example 388]	50	430	–	–	–
O=C(NO)C1(S(=O)(=O)c2ccc(N3CCN(CCO)CC3)cc2)CCOCC1 [Example 623]	350	1400	–	–	–
Cc1ccc(S(=O)(=O)N(C)C2CCN(c3ccc(S(=O)(=O)C4(C(=O)NO)CCOCC4)cc3)CC2)cc1 [Example 834]	150	780	–	–	–
CCc1ccc(C(=O)C2CCN(c3ccc(S(=O)(=O)C4(C(=O)NO)CCN(C5CC5)CC4)cc3)CC2)cc1 [Example 371]	11.1	400	–	–	–
CC1CC(C)CN(C(=O)C2CCN(c3ccc(S(=O)(=O)C4(C(=O)NO)CCOCC4)cc3)CC2)C1 (centres unmarked) [Example 55]	10	> 10000	–	–	–

SMILES	IC50 (MMP-13; [1]) [nM]	IC50 (MMP-2; [2]) [nM]	IC50 (MMP-2; MMP-2 IC50 (nM)) [nM]	IC50 (MMP-13) [nM]	IC50 (MMP-2; read-out: MMP-2 IC50) [nM]
O=C(NO)C1(S(=O)(=O)c2ccc(N3CCN(c4ccc(Cl)cc4)CC3)cc2)CCN(C2CC2)CC1 [Example 354]	1.6	15.4	–	–	–
O=C(NO)C1(S(=O)(=O)c2ccc(N3CCC(OCc4cccc(C(F)(F)F)c4)CC3)cc2)CCOCC1 [Example 177]	8.8	520	–	–	–
O=C(NO)C1(S(=O)(=O)c2ccc(Oc3ccc(C(F)(F)F)cc3)cc2)CCN(C2CC2)CC1 [Example 269]	–	–	< 0.1	–	–
O=C(NO)C1(S(=O)(=O)c2ccc(N3CCN(c4ccc(C(F)(F)F)cc4)CC3)cc2)CCN(C2CC2)CC1 [Example 356]	2.4	32.6	–	–	–
Cc1ccc(C2CCN(c3ccc(S(=O)(=O)C4(C(=O)NO)CCOCC4)cc3)CC2)cc1C [Example 869]	2	76.9	–	–	–
CS(=O)(=O)c1ccccc1S(=O)(=O)N1CC(Oc2ccc(S(=O)(=O)C3(C(=O)NO)CCOCC3)cc2)C1 [Example 845]	28.6	2000	–	–	–
CC(C)(C)c1ccc(CC2CCN(c3ccc(S(=O)(=O)C4(C(=O)NO)CCOCC4)cc3)CC2)cc1 [Example 841]	285	1900	–	–	–
Cc1ccc(C(O)C2CCN(c3ccc(S(=O)(=O)C4(C(=O)NO)CCOCC4)cc3)CC2)cc1C (centres unmarked) [Example 826]	40	650	–	–	–
COc1ccccc1N1CCN(c2ccc(S(=O)(=O)C3(C(=O)NO)CCOCC3)cc2)CC1 [Example 85]	130	370	–	–	–
O=C(NO)C1(S(=O)(=O)c2ccc(C3=CCC(c4ccccc4)CC3)cc2)CCOCC1 (centres unmarked) [Example 828]	1.5	12.8	–	–	–
O=C(NO)C1(S(=O)(=O)c2ccc(Oc3ccc(C(F)(F)F)cc3)cc2)CCN(C2CC2)CC1 [Example 271]	–	–	0.17	–	–
CSc1ccc(C(=O)C2CCN(c3ccc(S(=O)(=O)C4(C(=O)NO)CCOCC4)cc3)CC2)cc1 [Example 856]	1.2	250	–	–	–
O=C(NO)C1(S(=O)(=O)c2ccc(N3CCC(SCc4ccc(C(F)(F)F)cc4)CC3)cc2)CCN(C2CC2)CC1 [Example 394]	0.5	8	–	–	–
C#CCN1CCC(C(N)=O)(S(=O)(=O)c2ccc(Sc3ccccc3)cc2)CC1 [Example 2]	5500	6000	–	–	–
COc1ccc(N2CCN(c3ccc(S(=O)(=O)C4(C(=O)NO)CCN(C5CC5)CC4)cc3)CC2)cc1 [Example 368]	–	7	–	–	–
O=C(C1CCN(c2ccc(S(=O)(=O)C3(C(=O)NO)CCOCC3)cc2)CC1)N1CCN(c2ccc(C(F)(F)F)cc2)CC1 [Example 38]	–	–	–	67.4	6000
COCCN1CCC(C(N)=O)(S(=O)(=O)c2ccc(Oc3ccc(OC(F)(F)F)cc3)cc2)CC1 [Example 1]	22.7	8.5	–	–	–
CC(=O)c1ccccc1S(=O)(=O)N1CC(Oc2ccc(S(=O)(=O)C3(C(=O)NO)CCOCC3)cc2)C1 [Example 854]	40	3300	–	–	–
O=C(c1ccc(Cl)cc1)C1CCN(c2ccc(S(=O)(=O)C3(C(=O)NO)CCOCC3)cc2)CC1 [Example 857]	1.3	120	–	–	–
CCCCS(=O)(=O)N1CC(Oc2ccc(S(=O)(=O)C3(C(=O)NO)CCOCC3)cc2)C1 [Example 851]	3.7	42.5	–	–	–
O=C(NO)C1(S(=O)(=O)c2ccc(Oc3ccc(C(F)(F)F)cc3)cc2)CCN(C2CC2)CC1 [Example 270]	–	–	1	–	–
